Test results published in patent US10179782B2, “Substituted sulfonamide compounds” (Genentech, Inc., priority 2016, dated 2019).

Biological target: T1, human TRPA1 (Homo sapiens, UniProt O75762)
T1 construct: expressed in transfected cells; host or cells: CHO cells
Test: TRPA1 FLIPR Tetra calcium influx assay in CHO cells (block of cinnamaldehyde-induced calcium influx)
Assay type: cell-based
Settings: Table 2; CHO cells expressing TRPA1; agonist cinnamaldehyde 75 uM; 20 min compound incubation; Hill coefficient fixed to 1.5; read-out: hTRPA1 CHO Ca2+ AUC EVO (IC50)
Method in brief: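 CHO cells expressing TRPA1 were loaded with calcium dye in HBSS/20 mM HEPES, pH 7.4, 0.02% BSA, then given compound for 20 min at room temperature before ~EC80 cinnamaldehyde (75 µM human, 45 µM rat). Block of calcium influx was read on FLIPR Tetra; IC50 fitted with Hill coefficient fixed at 1.5.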

T1 sequence (O75762 whole entry): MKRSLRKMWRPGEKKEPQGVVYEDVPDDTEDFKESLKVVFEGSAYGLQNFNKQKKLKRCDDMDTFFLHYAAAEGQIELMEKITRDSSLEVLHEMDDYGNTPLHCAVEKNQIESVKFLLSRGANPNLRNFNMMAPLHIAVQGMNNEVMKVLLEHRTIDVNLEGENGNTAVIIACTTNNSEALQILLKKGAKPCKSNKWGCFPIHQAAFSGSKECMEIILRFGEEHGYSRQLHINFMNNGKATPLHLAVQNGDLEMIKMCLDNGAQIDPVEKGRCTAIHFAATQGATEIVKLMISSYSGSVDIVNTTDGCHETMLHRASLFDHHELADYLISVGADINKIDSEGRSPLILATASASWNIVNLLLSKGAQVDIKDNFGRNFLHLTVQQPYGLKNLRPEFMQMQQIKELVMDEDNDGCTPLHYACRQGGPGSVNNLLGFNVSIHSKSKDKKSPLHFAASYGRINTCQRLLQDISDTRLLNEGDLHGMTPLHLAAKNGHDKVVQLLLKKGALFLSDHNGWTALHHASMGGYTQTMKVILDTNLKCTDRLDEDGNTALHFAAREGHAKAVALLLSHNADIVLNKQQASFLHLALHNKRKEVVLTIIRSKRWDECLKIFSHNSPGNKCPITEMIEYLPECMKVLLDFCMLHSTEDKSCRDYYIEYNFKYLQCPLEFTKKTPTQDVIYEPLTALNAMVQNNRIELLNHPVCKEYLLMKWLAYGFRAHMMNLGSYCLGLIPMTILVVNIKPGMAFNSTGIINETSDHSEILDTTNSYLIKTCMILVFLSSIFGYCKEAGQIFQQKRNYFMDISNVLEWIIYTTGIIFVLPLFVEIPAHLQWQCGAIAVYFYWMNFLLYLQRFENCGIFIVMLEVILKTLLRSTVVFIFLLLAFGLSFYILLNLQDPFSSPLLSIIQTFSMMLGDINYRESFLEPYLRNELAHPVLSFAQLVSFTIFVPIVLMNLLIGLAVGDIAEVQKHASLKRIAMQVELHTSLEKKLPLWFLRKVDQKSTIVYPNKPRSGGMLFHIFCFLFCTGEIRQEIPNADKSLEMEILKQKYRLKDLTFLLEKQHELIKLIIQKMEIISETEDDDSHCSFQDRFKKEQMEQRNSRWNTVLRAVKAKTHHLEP

In order of rising IC50:
1. C[C@H]1[C@H](F)C[C@@H](C(=O)NCc2cc(-c3cnc(C(F)(F)F)nc3)ncc2F)N1S(=O)(=O)c1cc2cc(F)ccc2o1 [Example 154, (2S,4R,5S)-4-fluoro-1-(5-fluorobenzofuran-2-yl)sulfonyl-N-[[5-fluoro-2-[2-(trifluoromethyl)pyrimidin-5-yl]-4-pyridyl]methyl]-5-methyl-pyrrolidine-2-carboxamide]  0.00089 µM
2. O=C(NCc1cc(-c2cnc(C(F)(F)F)nc2)nc(C2CC2)n1)[C@@H]1[C@H]2C[C@H]2CN1S(=O)(=O)c1ccc(F)cc1 [Example 151, (1S,2S,5R)-N-[[2-cyclopropyl-6-[2-(trifluoromethyl)pyrimidin-5-yl]pyrimidin-4-yl]-methyl]-3-(4-fluorophenyl)sulfonyl-3-azabicyclo[3.1.0]hexane-2-carboxamide]  0.001 µM
3. C[C@H]1[C@H](F)C[C@@H](C(=O)NCc2cc(-c3cnc(C(F)(F)F)nc3)ncc2C(F)(F)F)N1S(=O)(=O)c1cncc(F)c1 [Example 159, (2S,4R,5S)-4-fluoro-1-[(5-fluoro-3-pyridyl)sulfonyl]-5-methyl-N-[[5-(trifluoromethyl)-2-[2-(trifluoromethyl)pyrimidin-5-yl]-4-pyridyl]methyl]pyrrolidine-2-carboxamide]  0.00231 µM
4. C[C@H]1[C@H](F)C[C@@H](C(=O)NCc2cc(-c3cnc(C(F)(F)F)nc3)ncc2F)N1S(=O)(=O)c1ccc(Cl)cc1 [Example 90]  0.0025 µM
5. C[C@H]1[C@H](F)C[C@@H](C(=O)NCc2cc(-c3cnc(C(F)(F)F)nc3)ncc2C(F)F)N1S(=O)(=O)c1ccc(F)cc1 [Example 102, (2S,4R,5S)—N-((5-(difluoromethyl)-2-(2-(trifluoromethyl)pyrimidin-5-yl)pyridin-4-yl)methyl)-4-fluoro-1-(4-fluorophenylsulfonyl)-5-methylpyrrolidine-2-carboxamide]  0.00407 µM
6. C[C@H]1[C@H](F)C[C@@H](C(=O)NCc2cc(-c3cnc(C(F)(F)F)s3)ncc2F)N1S(=O)(=O)c1ccc(F)cc1 [Example 93, (2S,4R,5S)-4-fluoro-1-(4-fluorophenyl)sulfonyl-N-[[5-fluoro-2-[2-(trifluoromethyl)thiazol-5-yl]-4-pyridyl]methyl]-5-methyl-pyrrolidine-2-carboxamide]  0.00538 µM
7. C[C@H]1[C@H](F)C[C@@H](C(=O)NCc2cc(-c3cnc(C(F)(F)F)nc3)ncc2F)N1S(=O)(=O)c1cc2ccccc2s1 [Example 98, (2S,4R,5S)-1-(benzothiophen-2-ylsulfonyl)-4-fluoro-N-[[5-fluoro-2-[2-(trifluoromethyl)pyrimidin-5-yl]-4-pyridyl]methyl]-5-methyl-pyrrolidine-2-carboxamide]  0.00561 µM
8. C[C@H]1[C@H](F)C[C@@H](C(=O)NCc2cc(-c3cnc(C(F)(F)F)nc3)ncc2F)N1S(=O)(=O)c1ccc(F)c(F)c1 [Example 28, (2S,4R,5S)-1-(3,4-difluorophenylsulfonyl)-4-fluoro-N-((5-fluoro-2-(2-(trifluoromethyl)pyrimidin-5-yl)pyridin-4-yl)methyl)-5-methylpyrrolidine-2-carboxamide]  0.00696 µM
9. C[C@H]1[C@H](F)C[C@@H](C(=O)NCc2cc(-c3cnc(C(F)(F)F)nc3)ncc2F)N1S(=O)(=O)c1ccc(Cl)c(Cl)c1 (stereo in doubt) [Example 92, (2S,4R,5S)-1-(3,4-dichlorophenyl)sulfonyl-4-fluoro-N-[[5-fluoro-2-[2-(trifluoromethyl)pyrimidin-5-yl]-4-pyridyl]methyl]-5-methyl-pyrrolidine-2-carboxamide]  0.00869 µM
10. CC[C@H]1CC[C@@H](C(=O)NCc2cc(-c3cnc(C(F)(F)F)nc3)ncn2)N1S(=O)(=O)c1ccc(F)cc1 [Example 20, (2S,5S)-5-ethyl-1-(4-fluorophenyl)sulfonyl-N-[[6-[2-(trifluoromethyl)pyrimidin-5-yl]pyrimidin-4-yl]methyl]pyrrolidine-2-carboxamide]  0.0109 µM
11. O=C(NCc1cc(-c2cnc(C(F)(F)F)nc2)ncc1F)[C@@H]1[C@H]2C[C@H]2CN1S(=O)(=O)c1ccc(F)cc1 (single isomer, unassigned) [Example 68]  0.0146 µM
12. C[C@H]1[C@H](F)C[C@@H](C(=O)NCc2cc(-c3cnc(C(F)(F)F)c(F)c3)c(F)cn2)N1S(=O)(=O)c1ccc(F)cc1 [Example 144, (2S,4R,5S)-4-fluoro-N-[[5-fluoro-4-[5-fluoro-6-(trifluoromethyl)-3-pyridyl]-2-pyridyl]methyl]-1-(4-fluorophenyl)sulfonyl-5-methyl-pyrrolidine-2-carboxamide]  0.017 µM
13. C[C@H]1[C@H](F)C[C@@H](C(=O)NCc2cc(-c3cc(C(F)(F)F)nn3C)ncc2F)N1S(=O)(=O)c1ccc(F)cc1 [Example 128, (2S,4R,5S)-4-fluoro-N-[[5-fluoro-2-[2-methyl-5-(trifluoromethyl)pyrazol-3-yl]-4-pyridyl]methyl]-1-(4-fluorophenyl)sulfonyl-5-methyl-pyrrolidine-2-carboxamide]  0.0182 µM
14. C[C@H]1[C@H](F)C[C@@H](C(=O)NCc2cc(-c3cnc(C(F)(F)F)nc3)ncc2OC(F)F)N1S(=O)(=O)c1ccc(F)cc1 [Example 24, (2S,4R,5S)-N-((5-(difluoromethoxy)-2-(2-(trifluoromethyl)pyrimidin-5-yl)pyridin-4-yl)methyl)-4-fluoro-1-(4-fluorophenylsulfonyl)-5-methylpyrrolidine-2-carboxamide]  0.0193 µM
15. C[C@H]1[C@H](F)C[C@@H](C(=O)NCc2cn([C@H]3CC[C@H](C(F)(F)F)CC3)nc2C(F)(F)F)N1S(=O)(=O)c1ccc(F)cc1 [Example 147, (2S,4R,5S)-4-fluoro-1-(4-fluorophenyl)sulfonyl-5-methyl-N-[[3-(trifluoromethyl)-1-[4-(trifluoromethyl)cyclohexyl]pyrazol-4-yl]methyl]pyrrolidine-2-carboxamide]  0.0245 µM
16. C[C@H]1[C@H](F)C[C@@H](C(=O)NCc2cn(-c3cnc(C(F)(F)F)nc3)nc2C(F)(F)F)N1S(=O)(=O)c1ccc(F)cc1 [Example 46, (2S,4R,5S)-4-fluoro-1-(4-fluorophenylsulfonyl)-5-methyl-N-((3-(trifluoromethyl)-1-(2-(trifluoromethyl)pyrimidin-5-yl)-1H-pyrazol-4-yl)methyl)pyrrolidine-2-carboxamide]  0.0262 µM
17. C[C@H]1[C@H](F)C[C@@H](C(=O)NCc2cc(-c3cnc(C(F)(F)F)c(C#N)c3)ncc2F)N1S(=O)(=O)c1ccc(F)cc1 [Example 134, (2S,4R,5S)-N-[[2-[5-cyano-6-(trifluoromethyl)-3-pyridyl]-5-fluoro-4-pyridyl]methyl]-4-fluoro-1-(4-fluorophenyl)sulfonyl-5-methyl-pyrrolidine-2-carboxamide]  0.0326 µM
18. C[C@H]1[C@H](F)C[C@@H](C(=O)NCc2cc(-c3cnc(C(F)(F)F)s3)c(F)cn2)N1S(=O)(=O)c1ccc(F)cc1 [Example 85, (2S,4R,5S)-4-fluoro-1-(4-fluorophenyl)sulfonyl-N-[[5-fluoro-4-[2-(trifluoromethyl)thiazol-5-yl]-2-pyridyl]methyl]-5-methyl-pyrrolidine-2-carboxamide]  0.0337 µM
19. C[C@H]1[C@H](F)C[C@@H](C(=O)NCc2cc(-c3ccc(C(F)(F)F)nc3)ncc2F)N1S(=O)(=O)c1ccc(F)cc1 [Example 26, (2S,4R,5S)-4-fluoro-N-((5-fluoro-6′-(trifluoromethyl)-2,3′-bipyridin-4-yl)methyl)-1-(4-fluorophenylsulfonyl)-5-methylpyrrolidine-2-carboxamide]  0.0412 µM
20. O=C(NCc1cc(-c2cnc(C(F)(F)F)nc2)ncn1)[C@@H]1CC[C@H](C(F)(F)F)N1S(=O)(=O)c1ccc(F)cc1 [Example 9, (2S,5R)-1-(4-fluorophenyl)sulfonyl-5-(trifluoromethyl)-N-[[6-[2-(trifluoromethyl)pyrimidin-5-yl]pyrimidin-4-yl]methyl]pyrrolidine-2-carboxamide]  0.0422 µM
21. COc1cnc(CNC(=O)[C@@H]2C[C@@H](F)[C@H](C)N2S(=O)(=O)c2ccc(F)cc2)cc1-c1cnc(C(F)(F)F)nc1 [Example 35, (2S,4R,5S)-4-fluoro-1-[(4-fluorobenzene)sulfonyl]-N-([5-methoxy-4-[2-(trifluoromethyl)pyrimidin-5-yl]pyridin-2-yl]methyl)-5-methylpyrrolidine-2-carboxamide]  0.0531 µM
22. O=C(NCc1cc(-c2cnc(C(F)(F)F)nc2)c(F)cc1F)[C@@H]1C[C@@H](F)CN1S(=O)(=O)c1ccc(F)cc1 [Example 74, (2S,4R)-N-[[2,4-difluoro-5-[2-(trifluoromethyl)pyrimidin-5-yl]phenyl]methyl]-4-fluoro-1-(4-fluorophenyl)sulfonyl-pyrrolidine-2-carboxamide]  0.0651 µM
23. C[C@H]1[C@H](F)C[C@@H](C(=O)NCc2cc(OCc3ccc(F)cn3)c(F)cn2)N1S(=O)(=O)c1ccc(F)cc1 [Example 47, (2S,4R,5S)-4-fluoro-N-((5-fluoro-4-((5-fluoropyridin-2-yl)methoxy)pyridin-2-yl)methyl)-1-(4-fluorophenylsulfonyl)-5-methylpyrrolidine-2-carboxamide]  1.9 µM
